In patent publication US6020344A (priority 1998, dated 2000):
“Also recorded” adds a separate entry of the source. Read-outs that look alike come from different tables or passages of the source.

Tests used:
[1] = system: Clostridium perfringens sialidase; assay type: biochemical; settings: for binding/inhibition of 5a compared with 5b (in words): 5a vs 5b; for affinity relative to substrate (in words): Ki vs substrate Km; for Ki: Table 1, competitive inhibition fit; for competitive inhibitor potency (in words): summary statement
[2] = target: T1, Vibrio cholerae sialidase (Vibrio cholerae serotype O1, UniProt P0C6E9)
[3] = target: bacterial sialidases; assay type: biochemical; settings: read-out: Ki (range)
[4] = target: T2, Salmonella typhimurium sialidase (Salmonella typhimurium, UniProt P29768); settings: for competitive inhibitor potency (in words): summary statement
[5] = target: T1, Vibrio cholerae sialidase; assay: biochemical
[6] = target: T2, Salmonella typhimurium sialidase; assay: biochemical
[7] = system: influenza neuraminidase; settings: literature; FANA compared with DANA; cited from earlier work
[8] = carboxyl group adjacent to the anomeric carbon; cited from earlier work
[9] = system: CC(=O)NC1C(O)CC(Oc2ccc([N+](=O)[O-])cc2)(C(=O)O)OC1C(O)C(O)CO; assay: purified protein, by the assay type; settings: pH 5.5; 30.0 °C

T2 sequence (P29768 whole entry): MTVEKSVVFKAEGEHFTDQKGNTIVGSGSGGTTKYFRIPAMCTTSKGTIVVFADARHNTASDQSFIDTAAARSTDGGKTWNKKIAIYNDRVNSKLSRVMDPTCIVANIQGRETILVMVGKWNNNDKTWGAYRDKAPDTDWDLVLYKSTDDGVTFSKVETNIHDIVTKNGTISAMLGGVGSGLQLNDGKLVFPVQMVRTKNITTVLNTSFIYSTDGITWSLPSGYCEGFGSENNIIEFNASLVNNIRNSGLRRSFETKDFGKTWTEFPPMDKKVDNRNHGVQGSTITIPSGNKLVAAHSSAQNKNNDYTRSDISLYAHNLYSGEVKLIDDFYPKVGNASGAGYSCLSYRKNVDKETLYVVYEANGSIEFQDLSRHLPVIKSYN
T1 sequence (P0C6E9 25-781): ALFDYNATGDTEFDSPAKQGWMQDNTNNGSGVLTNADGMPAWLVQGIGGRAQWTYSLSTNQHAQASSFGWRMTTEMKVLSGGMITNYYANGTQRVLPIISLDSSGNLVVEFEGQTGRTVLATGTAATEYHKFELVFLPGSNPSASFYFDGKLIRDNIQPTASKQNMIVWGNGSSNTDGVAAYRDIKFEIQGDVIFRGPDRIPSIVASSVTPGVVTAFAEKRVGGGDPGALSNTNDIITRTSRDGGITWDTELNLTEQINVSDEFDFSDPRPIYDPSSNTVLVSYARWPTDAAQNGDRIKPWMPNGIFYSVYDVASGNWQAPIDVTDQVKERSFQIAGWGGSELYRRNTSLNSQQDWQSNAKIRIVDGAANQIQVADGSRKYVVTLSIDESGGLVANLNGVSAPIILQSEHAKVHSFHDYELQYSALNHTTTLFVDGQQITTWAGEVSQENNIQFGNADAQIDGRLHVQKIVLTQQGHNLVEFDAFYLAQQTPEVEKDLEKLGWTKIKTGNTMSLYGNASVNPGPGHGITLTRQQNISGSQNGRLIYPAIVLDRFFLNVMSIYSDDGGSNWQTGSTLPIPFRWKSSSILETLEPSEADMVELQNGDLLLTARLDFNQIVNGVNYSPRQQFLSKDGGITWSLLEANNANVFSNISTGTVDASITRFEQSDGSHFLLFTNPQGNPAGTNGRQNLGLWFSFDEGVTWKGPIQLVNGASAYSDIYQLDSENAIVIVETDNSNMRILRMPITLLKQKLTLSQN

In the case of CC(=O)N[C@H]1[C@H](O)CN(C(Cc2ccccc2)C(=O)O)C[C@@H]1O (relative stereo) [±5b, trans-trans-5-N-(1'-carboxy-benzyl-ethyl)-3,5-dihydroxy-4-acetamidopiperidine], the “binding/inhibition of 5a compared with 5b (in words)” value [1] is reported as “inhibited to the same extent”, the “binding/inhibition of 5a compared with 5b (in words)” value ([1]; listed as 5b) is reported as “no net energetic advantage over binding 5a exists; also recorded: no preference” and the “affinity relative to substrate (in words)” value [1] is reported as “slightly lower affinity than substrate”. The Ki ([1]; pH 5.5, 30° C.) was 500 ± 70 µM, the “competitive inhibitor potency (in words)” value [1] was “sub-millimolar competitive inhibitors” and the “binding / inhibition (in words)” value [2] was “modest inhibitor”. For the same compound, the “binding of ±5b relative to 5a (in words)” value ([2]; 5b vs 5a) was “bound tighter than 5a”, the “binding relative to the p-nitrophenyl glycoside substrate” value ([2]; Ki vs substrate Km) was “approximately 2 × tighter” and the “binding / inhibition (in words)” value ([2]; listed as 5b) was “bind weakly”. The Ki [3] was 100 to 1000 µM, the “binding of ±5b relative to 5a” value ([4]; 5b vs 5a) was roughly 5 times more tightly and the “binding of ±5b relative to 5a (in words)” value ([4]; 5b vs 5a) was “bound tighter than 5a”. The “type of inhibition (double reciprocal plot)” value ([4]; FIG. 4) was “competitive”, the “binding relative to the p-nitrophenyl glycoside substrate” value ([4]; Ki vs substrate Km) was “approximately 2 × tighter” and the “competitive inhibitor potency (in words)” value [4] was “sub-millimolar competitive inhibitors”. For the same compound, the Ki [5] was 1500 ± 200 µM and the Ki [6] was 560 ± 30 µM.

With CC(=O)NC1C(O)CC(Oc2ccc([N+](=O)[O-])cc2)(C(=O)O)OC1C(O)C(O)CO [2-O-(p-nitrophenyl)-a-D-N-acetylneuraminic acid, reference compound] the Km ([1]; pH 5.5, 30° C.) was 280 ± 30 µM.

With CC(=O)N[C@H]1[C@H](O)CN(CC(=O)O)C[C@@H]1O [Compound 5a] the “binding/inhibition of 5a compared with 5b (in words)” value [1] was “inhibited to the same extent; also recorded: no preference”, the “affinity relative to substrate (in words)” value [1] was “slightly lower affinity than substrate” and the Ki ([1]; pH 5.5, 30° C.) was 400 ± 100 µM. For the same compound, the “competitive inhibitor potency (in words)” value [1] was “sub-millimolar competitive inhibitors”, the “binding / inhibition (in words)” value [2] was “bind weakly” and the “inhibition at concentrations up to / below 2 mM” value ([2]; up to 2 mM 5a, pH 5.5, 30° C.) was “No inhibition; also recorded: did not show inhibition”. For the same compound, the Ki [3] was 100 to 1000 µM, the “competitive inhibitor potency (in words)” value [4] was “sub-millimolar competitive inhibitors” and the Ki [5] was greater than 2000 µM. The Ki [6] was 2500 ± 400 µM.

For CC(=O)N[C@H]1[C@H]([C@H](O)[C@H](O)CO)OC(C(=O)O)=C[C@@H]1O [DANA, 2-deoxy-2,3-dehydro-N-acetylneuraminic acid], the “in vitro inhibition of influenza neuraminidase (in words)” value [7] is given as “effective in vitro inhibitor of NA; also recorded: among the most potent thus far described”.

In the case of O=C(O)C1=C[C@H](O)[C@@H](NC(=O)C(F)(F)F)[C@H]([C@H](O)[C@H](O)CO)O1 [FANA, 2-deoxy-2,3-dehydro-N-(trifluoroacetyl) neuraminic acid], the “in vitro inhibition of influenza neuraminidase (in words)” value [7] is given as “greater in vitro activity”.

In the case of CC(=O)N[C@H]1[C@H]([C@H](O)[C@H](O)CO)OC(O)(C(=O)O)C[C@@H]1O (stereo partly drawn) [N-acetyl neuraminic acid], the pKa [8] is given as ~ 2.8.

For “Salmonella typhimurium sialidase (Salmonella enterica subsp. enterica serovar Typhimurium str. LT2)”, the Km [9] was 1200 µM.

For “Vibrio cholerae sialidase (Vibrio cholerae O1 biovar El Tor str. N16961)”, the Km [9] was 2700 µM.
